Measured values from patent publication US20020137929A1, “1 - (3-heterocyclylphenyl) isothiourea, -isourea, -guanidine and -amidine herbicidal agents” (Intellectual Property Department, BASF Aktiengesellschaft, priority 1998, published 2002).

What was measured:
[1] = tested on: GLXMAW (Soybean, Williams); assay: Postemergence herbicidal evaluation; type: in vivo, Glycine max, (L.) Merr. cv Williams
Outline: (§1)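 Scores (0–9) reflect plant stand, vigor, malformation, size, chlorosis and general appearance relative to control, read 4 to 5 weeks after treatment and averaged where tests were repeated. Application: about 0.0156–0.500 kg/ha sprayed at 40 psi onto two-week seedlings.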

CYPIR (Rice Flatsedge) = assay: Preemergence weed control under flooded paddy conditions; type: in vivo, Cyperus iria; conditions: 0.2500 kg/ha, rated 3-4 weeks after treatment
Outline: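 Ratings on a 0-9 visual scale cover stand, vigor, malformation, size, chlorosis and overall appearance relative to a control, taken three to four weeks post-treatment. Application was into flood water over freshly sown silt loam at roughly 0.0313 to 0.500 kg/ha.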

SETVI (Foxtail, Green) [2] = assay: Preemergence herbicidal evaluation; type: in vivo, Setaria viridis; conditions: rated 4-5 weeks after treatment
Outline: (§2)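 Visual 0-9 rating vs control (stand, vigor, malformation, size, chlorosis, overall appearance), scored 4-5 wk after spraying. Seeded soil cups were treated preemergence with compound in aqueous acetone, ~0.0156-0.500 kg/ha equivalent.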

SETVI (Foxtail, Green) [3] = assay: Postemergence herbicidal evaluation; type: in vivo, Setaria viridis
Outline: as §1

[4] = tested on: TRZAWR (Wheat, Winter, cv Riband); assay: Postemergence herbicidal evaluation; type: in vivo, Triticum aestivum
Outline: as §1

ABUTH (Velvetleaf) = assay: Postemergence herbicidal evaluation; type: in vivo, Abutilon theophrasti
Outline: as §1

CYPSE (Flatsedge) = assay: Postemergence weed control under flooded paddy conditions; type: in vivo, Cyperus serotinus; conditions: rate 0.2500 kg/ha, postemergence weeds, 3-4 weeks after treatment
Outline: (§3)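 Flood-water application, about 0.0313–0.500 kg/ha a.i. in aqueous/acetone 50/50 v/v; water depth 1.5–3 cm throughout. Weeds 3–5 cm, rice 1.5–2.5 leaf. Greenhouse; 0–9 visual rating vs control at 3–4 wk.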

GALAP (Galium) = assay: Preemergence herbicidal evaluation; type: in vivo, Galium aparine; conditions: rated 4-5 weeks after treatment
Outline: as §2

[5] = tested on: CHEAL (Lambsquarters, Common); assay: Postemergence herbicidal evaluation; type: in vivo, Chenopodium album
Outline: as §1

[6] = tested on: ECHORC (Watergrass (Calif.)); assay: Postemergence weed control under flooded paddy conditions; type: in vivo, Echinochloa oryzoides; conditions: rate 0.2500 kg/ha, postemergence weeds, 3-4 weeks after treatment
Outline: as §3

AMBEL (Ragweed, Common) = assay: Preemergence herbicidal evaluation; type: in vivo, Ambrosia artemisifolia; conditions: rated 4-5 weeks after treatment
Outline: as §2

[7] = tested on: SAGPY (Arrowhead (Pygmaea)); assay: Postemergence weed control under flooded paddy conditions; type: in vivo, Sagittaria pygmaea; conditions: rate 0.2500 kg/ha, postemergence weeds, 3-4 weeks after treatment
Outline: as §3

ZEAMX (Corn, Field) = assay: Postemergence herbicidal evaluation; type: in vivo, Zea mays
Outline: as §1

ORYSAT (Rice, Tebonnet) = assay: Postemergence herbicidal evaluation; type: in vivo, Oryza sativa, (L.) Tebonnet
Outline: as §1

## CCOC(=O)CN1C(=O)C(CC(=O)O)SC1=Nc1cc(-n2c(=O)cc(C(F)(F)F)n(C)c2=O)c(Cl)cc1Cl (centres unmarked) [Compound 33, 2-{{2,4-Dichloro-5-[3,6-dihydro-3-methyl-2,6-dioxo-4-(trifluoromethyl)-1(2H)-pyrimidinyl]phenyl}-imino}-4-oxo-3,5-thiazolidinediacetic acid, 3-ethyl ester]
[1]; Rate 0.0158 kg/ha
  Postemergence herbicidal rating GLXMAW: 7.0
[1]; Rate 0.0315 kg/ha
  Postemergence herbicidal rating GLXMAW: 8.5
[1]; Rate 0.0630 kg/ha
  Postemergence herbicidal rating GLXMAW: 8.5
CYPIR (Rice Flatsedge)
  Herbicidal rating CYPIR: 0.0
SETVI (Foxtail, Green) [2]; rate 0.0156 kg/ha
  Preemergence herbicidal rating SETVI: 0.0
SETVI (Foxtail, Green) [2]; rate 0.0313 kg/ha
  Preemergence herbicidal rating SETVI: 0.0
SETVI (Foxtail, Green) [2]; rate 0.0625 kg/ha
  Preemergence herbicidal rating SETVI: 3.0
SETVI (Foxtail, Green) [2]; rate 0.1250 kg/ha
  Preemergence herbicidal rating SETVI: 3.0
SETVI (Foxtail, Green) [2]; rate 0.2500 kg/ha
  Preemergence herbicidal rating SETVI: 9.0
SETVI (Foxtail, Green) [3]; Rate 0.0158 kg/ha
  Postemergence herbicidal rating SETVI: 4.0
SETVI (Foxtail, Green) [3]; Rate 0.0315 kg/ha
  Postemergence herbicidal rating SETVI: 7.0
SETVI (Foxtail, Green) [3]; Rate 0.0630 kg/ha
  Postemergence herbicidal rating SETVI: 8.0
[4]; Rate 0.0158 kg/ha
  Postemergence herbicidal rating TRZAWR: 3.5
[4]; Rate 0.0315 kg/ha
  Postemergence herbicidal rating TRZAWR: 5.5
[4]; Rate 0.0630 kg/ha
  Postemergence herbicidal rating TRZAWR: 6.0
ABUTH (Velvetleaf); Rate 0.0158 kg/ha
  Postemergence herbicidal rating ABUTH: 9.0
ABUTH (Velvetleaf); Rate 0.0315 kg/ha
  Postemergence herbicidal rating ABUTH: 9.0
ABUTH (Velvetleaf); Rate 0.0630 kg/ha
  Postemergence herbicidal rating ABUTH: 9.0
CYPSE (Flatsedge)
  Herbicidal rating CYPSE: 0.0
GALAP (Galium); rate 0.0156 kg/ha
  Preemergence herbicidal rating GALAP: 0.0
GALAP (Galium); rate 0.0313 kg/ha
  Preemergence herbicidal rating GALAP: 0.0
GALAP (Galium); rate 0.0625 kg/ha
  Preemergence herbicidal rating GALAP: 0.0
[5]; Rate 0.0158 kg/ha
  Postemergence herbicidal rating CHEAL: 9.0
[5]; Rate 0.0315 kg/ha
  Postemergence herbicidal rating CHEAL: 9.0
[5]; Rate 0.0630 kg/ha
  Postemergence herbicidal rating CHEAL: 9.0
[6]
  Herbicidal rating ECHORC: 0.0
AMBEL (Ragweed, Common); rate 0.0156 kg/ha
  Preemergence herbicidal rating AMBEL: 0.0
AMBEL (Ragweed, Common); rate 0.0313 kg/ha
  Preemergence herbicidal rating AMBEL: 0.0
AMBEL (Ragweed, Common); rate 0.0625 kg/ha
  Preemergence herbicidal rating AMBEL: 9.0
AMBEL (Ragweed, Common); rate 0.1250 kg/ha
  Preemergence herbicidal rating AMBEL: 9.0
AMBEL (Ragweed, Common); rate 0.2500 kg/ha
  Preemergence herbicidal rating AMBEL: 9.0
[7]
  Herbicidal rating SAGPY: 0.0
ZEAMX (Corn, Field); Rate 0.0158 kg/ha
  Postemergence herbicidal rating ZEAMX: 7.5
ZEAMX (Corn, Field); Rate 0.0315 kg/ha
  Postemergence herbicidal rating ZEAMX: 8.0
ZEAMX (Corn, Field); Rate 0.0630 kg/ha
  Postemergence herbicidal rating ZEAMX: 8.5
ORYSAT (Rice, Tebonnet); Rate 0.0158 kg/ha
  Postemergence herbicidal rating ORYSAT: 0.5
ORYSAT (Rice, Tebonnet); Rate 0.0315 kg/ha
  Postemergence herbicidal rating ORYSAT: 2.0
ORYSAT (Rice, Tebonnet); Rate 0.0630 kg/ha
  Postemergence herbicidal rating ORYSAT: 2.0
